Series [1] has as its system B16-F10. The experiment in a line: Antitumor activity against mouse B16-F10 cells implanted in male C57BL/6 mouse model assessed as tumor growth inhibition at 20 mg/kg, po administered once daily via gavage for 14 days relative to control. The conditions noted are these: B16-F10, 336 h, time 14 day, read-out: TGI. The series is classed as functional.
The nature of series [2]: Oral bioavailability in male C57BL/6 mouse at 20 mg/kg. The series is classed as ADME, organism-based. The conditions noted are these: in vivo.
Series [3] deals with Mus musculus. The experiment in a line: Immunomodulatory activity in male C57BL/6 mouse model implanted with mouse B16-F10 cells assessed as increase in CD3+ CD4+ T cells in tumor at 20 mg/kg, po administered once daily for 14 days by flow cytometric analysis (reference value: 3.1 %). The series is classed as functional. The conditions noted are these: time 14 day. On the technique in general: A flow cytometer gives signals particle by particle.

In series [4] the test system is Mus musculus. The experiment in a line: Immunomodulatory activity in male C57BL/6 mouse model implanted with mouse B16-F10 cells assessed as increase in CD3+ CD8+ T cells in tumor at 20 mg/kg, po administered once daily for 14 days by flow cytometric analysis (reference value: 3.2 %). The series is classed as functional. The conditions noted are these: time 14 day.

In series [5] the target is T1, Histone deacetylase 3 (Mus musculus) (UniProt O88895).
T1 sequence (whole entry): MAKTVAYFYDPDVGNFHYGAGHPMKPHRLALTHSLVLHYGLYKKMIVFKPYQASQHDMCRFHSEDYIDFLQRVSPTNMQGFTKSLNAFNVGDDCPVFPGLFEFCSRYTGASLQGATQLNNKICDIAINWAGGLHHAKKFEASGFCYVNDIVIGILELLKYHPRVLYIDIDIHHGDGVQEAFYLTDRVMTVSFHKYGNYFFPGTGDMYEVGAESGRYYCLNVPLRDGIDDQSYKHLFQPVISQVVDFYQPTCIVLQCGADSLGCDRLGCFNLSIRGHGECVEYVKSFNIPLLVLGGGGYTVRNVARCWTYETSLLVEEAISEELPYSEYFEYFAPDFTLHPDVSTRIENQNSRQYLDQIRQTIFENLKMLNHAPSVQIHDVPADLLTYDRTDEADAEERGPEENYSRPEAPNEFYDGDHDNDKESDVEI
The experiment in a line: In vivo inhibition of HDAC3 in male C57BL/6 mouse model implanted with mouse B16-F10 cells assessed as increase in acetylated histone H3 level in tumor at 20 mg/kg, po administered once daily via gavage for 14 days by DAPI staining based immunofluorescence analysis. The series is classed as functional, organism-based. To be noted: time 14.0 day.

The subject of series [6] is Mus musculus. Put plainly: In vivo induction of PD-L1 degradation in male C57BL/6 mouse model implanted with mouse B16-F10 cells assessed as decrease in PD-L1 protein expression in tumor at 20 mg/kg, po administered once daily via gavage for 14 days by DAPI staining based immunofluorescence analysis. It is filed as functional, organism-based. The conditions noted are these: time 14.0 day.

Series [7] concerns B16-F10. Put plainly: Downregulation of PARP1 expression in mouse B16-F10 cells at 2 uM incubated for 24 hrs by Western blot analysis. It is filed as functional, cell-based. On the technique in general: A western blot detects proteins with antibodies after separation by electrophoresis.
For series [8], the system named is 4T1. The experiment in a line: Downregulation of PARP1 expression in mouse 4T1 cells at 2 uM incubated for 24 hrs by Western blot analysis. The series is classed as functional, cell-based.
In series [9] the test system is B16-F10. Put plainly: Induction of DNA damage in mouse B16-F10 cells assessed as increase in gamma-H2AX expression at 2 uM incubated for 24 hrs by Western blot analysis. The series is classed as functional, cell-based.
The subject of series [10] is 4T1. Put plainly: Induction of DNA damage in mouse 4T1 cells assessed as increase in gamma-H2AX expression at 2 uM incubated for 24 hrs by Western blot analysis. It is filed as functional, cell-based.
Series [11] relates to 4T1. The experiment in a line: Antitumor activity against mouse 4T1 cells implanted in female BALB/c mouse model assessed as tumor growth inhibition administrated orally as once daily dose via gavage for 14 days relative to control. The series is classed as functional. The conditions noted are these: route po; time 14 day.
The nature of series [12]: Toxicity in female BALB/c mouse model implanted with mouse 4T1 cells assessed as effect on body weight administrated orally as once daily dose via gavage for 14 days. The conditions noted are these: in vivo, po, 336 h, time 14 day.
For series [13], the system named is 4T1. The experiment in a line: Antitumor activity against mouse 4T1 cells implanted in female BALB/c mouse model assessed as decrease in PAPR1 expression in tumor administrated orally as once daily dose via gavage for 14 days by Western blot analysis. To be noted: route po, time 14.0 day. It is filed as functional, cell-based.
Series [14] has as its system 4T1. Put plainly: Antitumor activity against mouse 4T1 cells implanted in female BALB/c mouse model assessed as induction of DNA damage by measuring increase in gamma-H2AX expression in tumor administrated orally as once daily dose via gavage for 14 days by Western blot analysis. It is filed as functional, cell-based. To be noted: route po, time 14.0 day.
Series [15] deals with T1, Histone deacetylase 3 (Mus musculus). The experiment in a line: Inhibition of HDAC3 in mouse B16-F10 cells assessed as increase in histone H3 acetylation level at 5 to 20 uM incubated for 24 hrs by Western blot analysis. It is filed as cell-based. To be noted: dose 5-20 µM.
For series [16] the target is unchanged. Put plainly: Inhibition of HDAC3 in mouse 4T1 cells assessed as increase in histone H3 acetylation level at 5 to 20 uM incubated for 24 hrs by Western blot analysis. The series is classed as cell-based. To be noted: dose 5-20 µM.
Series [17] deals with Mus musculus. Put plainly: Immunomodulatory activity in male C57BL/6 mouse model implanted with mouse B16-F10 cells assessed as increase in CD3+ CD4+ T cells in tumor at 50 mg/kg, po administered once daily for 14 days by flow cytometric analysis (reference value: 3.1 %). The series is classed as functional. To be noted: time 14 day.
In series [18] the test system is Mus musculus. The experiment in a line: Immunomodulatory activity in male C57BL/6 mouse model implanted with mouse B16-F10 cells assessed as increase in CD3+ CD8+ T cells in tumor at 50 mg/kg, po administered once daily for 14 days by flow cytometric analysis (reference value: 3.2 %). It is filed as functional. To be noted: time 14 day.
For series [19], the target named is T1, Histone deacetylase 3 (Mus musculus). Put plainly: In vivo inhibition of HDAC3 in male C57BL/6 mouse model implanted with mouse B16-F10 cells assessed as increase in acetylated histone H3 level at 50 mg/kg, po administered once daily via gavage for 14 days by Western blot analysis. The series is classed as functional, organism-based. To be noted: time 14.0 day.

Series [20] concerns Mus musculus. Put plainly: Effect on acetylated alpha-tubulin level in male C57BL/6 mouse tumor implanted with mouse B16-F10 cells at 50 mg/kg, po administered once daily via gavage for 14 days by Western blot analysis. The series is classed as functional, organism-based. To be noted: time 14.0 day.
In series [21] the target is T1, Histone deacetylase 3 (Mus musculus). Put plainly: In vivo inhibition of HDAC3 in male C57BL/6 mouse model implanted with mouse B16-F10 cells assessed as increase in acetylated histone H3 level in tumor at 50 mg/kg, po administered once daily via gavage for 14 days by DAPI staining based immunofluorescence analysis. The conditions noted are these: time 14.0 day. It is filed as functional, organism-based.

The next series addresses Histone deacetylase 3 (Homo sapiens, UniProt O15379). The conditions noted are these: dose 500.0 nM, time 3.0 hrs.

The record followed here is ChEMBL document CHEMBL6096732 (J Med Chem, 2025).

Activity calls are given as the source filed them. The calls are words filed in the database; no cut-off is given here.

By bioavailability is commonly meant the share of a dose that reaches the circulation, judged against a reference dose that is usually intravenous. Lower therefore signals little systemic uptake. A word on the inhibition: it is the share of the control response that was lost under treatment. Usually TGI stands for how far tumour growth fell short of that in controls.

Chain of Histone deacetylase 3 (O15379 whole entry): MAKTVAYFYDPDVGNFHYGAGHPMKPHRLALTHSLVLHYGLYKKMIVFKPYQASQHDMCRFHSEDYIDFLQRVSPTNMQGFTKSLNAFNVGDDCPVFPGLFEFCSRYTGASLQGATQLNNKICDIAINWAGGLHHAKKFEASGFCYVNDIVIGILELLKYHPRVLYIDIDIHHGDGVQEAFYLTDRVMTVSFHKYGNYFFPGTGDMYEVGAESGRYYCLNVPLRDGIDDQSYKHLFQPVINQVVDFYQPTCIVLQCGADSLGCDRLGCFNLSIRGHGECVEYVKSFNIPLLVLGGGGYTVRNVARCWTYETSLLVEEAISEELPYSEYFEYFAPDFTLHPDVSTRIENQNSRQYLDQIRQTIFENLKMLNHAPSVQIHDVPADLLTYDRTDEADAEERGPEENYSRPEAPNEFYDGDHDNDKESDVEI

Turning to `Cc1c(COc2cc(OCc3cccc(C#N)c3)c(CNC(C)(C)C(=O)O)cc2Cl)cccc1-c1ccccc1`, the inhibition in vivo at 20 mg/kg with B16-F10 [1] stood at 37%. In [2], this molecule returned a bioavailability below 5%. For the same molecule, the Activity in the series on Mus musculus [3] and with Mus musculus [4] was 27% in each case. The inhibition result in [5] is “inactive”. The result in the series on Mus musculus [6] was Active.

As to `O=C(c1cc(Cc2n[nH]c(=O)c3ccccc23)ccc1F)N1CCN(C(=O)C2CC2)CC1` [OLAPARIB], the result with B16-F10 [7], in the series on 4T1 [8], in the series with B16-F10 [9], in the series on 4T1 [10], in the series with 4T1 [13] and with 4T1 [14] was Active. The TGI in the series with 4T1 [11] was 36%. Further, the Activity result in [12] is given as “Non-toxic”.

Consider `O=C(CCCCCCC(=O)Nc1ccccc1)NO` [VORINOSTAT], for which the inhibition result in series [15], in [16], in series [19] and in series [21] was “Active” in each case. The Activity with Mus musculus [17] came to 17%; in the series with Mus musculus [18], 23%. The result in the series with Mus musculus [20] was inactive. This molecule yielded an inhibition against Histone deacetylase 3 of 77%.
